Measurements as given in US12146155B2, “Method for constructing human pluripotent stem cell-derived liver organoid having enhanced drug metabolic potential and liver organoid constructed by same method” (KOREA RESEARCH INSTITUTE OF CHEMICAL TECHNOLOGY, priority 2021, dated 2024).

Columns and labels:
[1] = test system: hiPSC-derived cardiomyocytes (hiPSC-CMs) co-cultured with FC-treated S(−)-HO
Method: (§1) Specifically, the electrical activity of Cardiosight®-S (NEXEL Co., South Korea), the hiPSC-CM, was measured using an MEA system (Axion BioSystems, Maestro, US) at 37° C. and perfused with 5% CO2, 20% O2, and 75% N2. The hiPSC-CMs were first seeded in a 12-well MEA plate at the density of 4×10^4 cells per well and maintained for 7 days in a cardiomyocyte culture medium provided by NEXEL Co. to stabilize with half-mid changes performed every 2 days. One week later, the culture medium was replaced with a liver organoid differentiation medium (DM). Transwell inserts (Corning) were then placed in each well, and FC-treated S(−)-HO was seeded in the inserts, followed by culture for 3 days. On the day of compound application, the culture medium was completely removed from the wells and inserts and fresh medium was added to ensure the correct volume per well (2 m ? /well total). Cells were allowed to equilibrate for 4 hours, and online parameters were monitored to ensure a stable baseline for at least 40 minutes. The cells were exposed to cyclophosphamide at a single dose per well. After application of the drug or control (0.1% DMSO), field potentials were measured every 5 minutes for 30 seconds for 72 hours. The field potential signals were recorded and analyzed using Axion BioSystems' integrated studio (AxIS) software to measure the beating frequency and field potential duration. […]

HepG2 = experiment: Fimasartan metabolite formation (LC-MS/MS); type: in vitro ADME, human; conditions: 50 μM FMS for 24 hours
Method: 70 μ ? of medium was collected at 3, 6, 12 and 24 hours, respectively, and the reaction was quenched by adding 70 μ ? of ice-cold ACN containing 100 nM BR-A-563 as an internal standard. The samples were centrifuged at 16,000 g for 10 minutes at 4° C. and the supernatant was applied to liquid chromatography-tandem mass spectrometry (LC-MS/MS). Data were normalized to protein concentration.

HepG2 and 2D HLC = experiment: Acetaminophen metabolite formation (LC-MS/MS); type: in vitro ADME, human; conditions: 10 mM APAP
Method: Specifically, to measure the metabolites of APAP, reactions were performed in PHH, D-HO, S-HO, HepG2, and 2D HLC treated with 10 mM APAP for 24 hours at 37° C. in 5% CO2. APAP was treated to a final volume of 0.7 m ? per well in each 24-well culture plate. 70 μ ? of medium was collected at 3, 6, 12 and 24 hours, respectively, and the reaction was quenched by adding 70 μ ? of ice-cold ACN containing 100 nM BR-A-563 as an internal standard. The samples were centrifuged at 16,000 g for 10 minutes at 4° C. and the supernatant was applied to liquid chromatography-tandem mass spectrometry (LC-MS/MS). Data were normalized to protein concentration.

MRP2 = biological target: T1, MRP2 (Homo sapiens, UniProt Q92887); experiment: CDFDA staining of liver organoids with or without transporter inhibitor; type: cell-based; conditions: 2 mM probenecid for 3 hours; D(−)-HO and S(−)-HO
T1 construct: endogenous in cells; host or cells: human iPSC-derived liver organoids (D(−)-HO, S(−)-HO)
T1 sequence (Q92887 whole entry): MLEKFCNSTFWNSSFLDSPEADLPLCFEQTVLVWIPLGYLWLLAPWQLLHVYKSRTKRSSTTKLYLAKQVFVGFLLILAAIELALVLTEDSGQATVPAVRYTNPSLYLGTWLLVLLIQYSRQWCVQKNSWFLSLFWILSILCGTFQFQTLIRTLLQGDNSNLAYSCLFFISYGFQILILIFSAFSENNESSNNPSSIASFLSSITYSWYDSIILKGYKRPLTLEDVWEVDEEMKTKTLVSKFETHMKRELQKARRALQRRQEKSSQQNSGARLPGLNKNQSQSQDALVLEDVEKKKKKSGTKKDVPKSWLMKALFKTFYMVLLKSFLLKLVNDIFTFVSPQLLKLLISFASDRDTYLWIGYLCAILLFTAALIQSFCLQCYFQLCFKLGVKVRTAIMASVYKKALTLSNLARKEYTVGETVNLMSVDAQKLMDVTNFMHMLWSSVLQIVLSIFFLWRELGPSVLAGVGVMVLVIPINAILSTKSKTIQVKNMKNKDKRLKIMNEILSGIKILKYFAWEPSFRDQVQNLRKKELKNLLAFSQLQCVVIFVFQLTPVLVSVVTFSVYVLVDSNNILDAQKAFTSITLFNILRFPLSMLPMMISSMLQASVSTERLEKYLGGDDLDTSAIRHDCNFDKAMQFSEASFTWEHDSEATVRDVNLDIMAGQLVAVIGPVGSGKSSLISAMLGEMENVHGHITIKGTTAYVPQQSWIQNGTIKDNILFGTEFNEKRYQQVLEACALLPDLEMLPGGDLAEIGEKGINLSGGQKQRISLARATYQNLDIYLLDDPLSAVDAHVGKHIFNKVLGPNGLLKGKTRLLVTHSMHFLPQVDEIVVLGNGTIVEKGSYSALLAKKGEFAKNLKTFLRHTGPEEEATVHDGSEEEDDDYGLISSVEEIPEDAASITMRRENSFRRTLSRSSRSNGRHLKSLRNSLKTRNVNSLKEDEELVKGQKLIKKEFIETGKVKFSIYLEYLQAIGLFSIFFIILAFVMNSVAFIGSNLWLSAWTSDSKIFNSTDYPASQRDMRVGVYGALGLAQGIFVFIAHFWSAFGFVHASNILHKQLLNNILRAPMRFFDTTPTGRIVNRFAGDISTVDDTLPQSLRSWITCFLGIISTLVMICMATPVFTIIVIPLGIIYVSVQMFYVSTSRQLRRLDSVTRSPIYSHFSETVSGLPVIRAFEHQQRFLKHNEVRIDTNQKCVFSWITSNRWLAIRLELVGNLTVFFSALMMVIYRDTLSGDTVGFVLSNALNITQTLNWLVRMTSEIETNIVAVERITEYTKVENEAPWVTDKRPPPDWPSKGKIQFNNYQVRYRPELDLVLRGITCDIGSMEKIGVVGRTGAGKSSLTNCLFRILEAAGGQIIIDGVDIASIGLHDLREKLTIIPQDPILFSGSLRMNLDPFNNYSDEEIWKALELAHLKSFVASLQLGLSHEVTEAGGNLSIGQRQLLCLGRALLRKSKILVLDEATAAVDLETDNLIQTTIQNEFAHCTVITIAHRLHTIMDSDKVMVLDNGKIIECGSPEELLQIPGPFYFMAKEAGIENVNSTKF
Method: Specifically, the liver organoids were recovered on Matrigel and washed three times with DPBS. For CDFDA (5(6)-carboxy-2′,7′-dichlorofluorescein diacetate) staining, the liver organoids treated with or without 2 mM probenecid for 3 hours were stained with 10 μM CDFDA (Sigma-Aldrich) for 15 minutes at 37° C., 5% CO2. […] All samples were washed three times with DPBS, stained with Hoechst 33342, and observed under an Olympus FV3000 confocal microscope.

[2] = test system: hiPSC-CM not cultured with liver organoids; experiment: MEA electrophysiology of hiPSC-CMs without liver organoids; type: cell-based, human
Method: as §1

## O=P1(N(CCCl)CCCl)NCCCO1 (stereo not drawn) [CP, Cyclophosphamide]
[1]; 250 μM, after 24 and 72 hours
  field potential duration corrected by beating frequency (FPDcF): increased
[1]; 250 and 500 μM for 24 and 72 hours, compared to hiPSC-CM alone
  beating rate: significantly reduced

## CCCCc1nc(C)c(CC(=S)N(C)C)c(=O)n1Cc1ccc(-c2ccccc2-c2nnn[nH]2)cc1 [FMS, Fimasartan]
HepG2
  production of BR-A-535, a 3-step metabolite of FMS by CYP3A4: not observed

## CC(=O)Nc1ccc(O)cc1 [acetaminophen, Acetaminophen]
HepG2 and 2D HLC
  APAP-GSH amount of metabolites: no metabolites were detected

## CCCN(CCC)S(=O)(=O)c1ccc(C(=O)O)cc1 [probenecid]
MRP2
  MRP2-specific fluorescence (CDFDA) when transporter blocked: accumulated in the lumen of the liver organoids

## CC(C)(C)c1ccc(C(O)CCCN2CCC(C(O)(c3ccccc3)c3ccccc3)CC2)cc1 (stereo not drawn) [terfenadine, Terfenadine]
[2]
  time to spontaneous beating cessation after addition: ≤ 30 min
